The values that follow come from patent US20080293818A1, “Regulator of Physiological Function of Ghrelin and Use Thereof” (priority 2004, published 2008).

One assay has as its system plasma ghrelin peptides. As to the kind of experiment: Molecular forms of circulating (plasma) ghrelin after glyceryl triheptanoate ingestion. Type of assay: in vivo, mouse. The following applies: fed 4 days, HPLC, C-RIA. As to the method: Plasma samples were prepared as previously described [D2]. Whole blood samples were immediately transferred to chilled polypropylene tubes containing EDTA-2 Na (1 mg/ml) and aprotinin (1,000 kallikrein inactivator units/ml) and centrifuged at 4° C. Immediately after separation of the plasma, hydrogen chloride was added to the sample at final concentration of 0.1 N and then diluted with an equal volume of physiological saline. The sample was loaded onto a Sep-Pak C18 cartridge (Waters, Milford, Mass.) pre-equilibrated with 0.1% trifluoroacetic acid (TFA) and 0.9% NaCl. The cartridge was washed with 0.9% NaCl and 5% acetonitrile (CH3CN)/0.1% TFA, and then eluted with 60% CH3CN/0.1% TFA. The eluate was then lyophilized and residual materials were redissolved in 1 M acetic acid (AcOH) and adsorbed onto a SP-Sephadex C-25 column (H^+-form, Pharmacia, Uppsala, Sweden) pre-equilibrated in 1 M AcOH. Successive elution with 1 M AcOH, 2 M pyridine, and 2 M pyridine-AcOH (pH 5.0) provided three fractions: SP-I, SP-II and SP-III. […] Ghrelin peptide content in each fraction was measured by ghrelin C-RIA as described above.
Plasma samples collected from control mice fed standard chow (A) and glyceryl triheptanoate-treated mice (B) were fractionated by HPLC and measured for ghrelin immunoreactivity by C-RIA. […]

In assay [1] the test system is n-heptanoyl ghrelin in the stomach. As to the kind of experiment: Molecular forms of stomach ghrelin after glyceryl triheptanoate ingestion (HPLC, C-RIA and N-RIA). Type of assay: in vivo, mouse. As for the experimental part: Male C57BL/6J mice weighing 20-25 g (10-12 week old) were maintained under controlled temperature (21-23° C.) and light conditions (light on 0700-1900) with ad libitum access to food and water. Medium-chain fatty acids (MCFAs), i.e., n-hexanoic, n-octanoic, and n-lauric acids (Sigma-Aldrich Japan Co., Ltd., Tokyo), were dissolved in water at 5 mg/ml. n-Palmitic acid, a common long-chain fatty acid (LCFA) (Sigma-Aldrich Japan Co., Ltd., Tokyo), was mixed into standard laboratory chow (CLEA Rodent Diet CE-2, CLEA Japan, Osaka) at a concentration of 1% (w/w), to equilibrate the total intake amount of this lipid to the other medium-chain fatty acids contained in the food. Medium- and long-chain triglycerides (MCTs and LCTs), i.e., glyceryl trihexanoate, trioctanoate, tridecanoate and tripalmitates (Wako Pure Chemical, Osaka, Japan), were mixed with standard laboratory chow at a concentration of 5% (w/w). Whole stomach tissues from treated mice were collected at the indicated times (0-14 days) after ingesting the free fatty acid- or triacylglyceride-containing food. Fresh tissue samples from these mice were diced and boiled for 5 minutes in a 10-fold volume of water. The tissue-containing solution was then adjusted to 1M acetic acid after cooling and then homogenized with a Polytron mixer. The supernatant, obtained after centrifugation at 15,000 rpm for 15 minutes, was then lyophilized. The lyophilized material was dissolved in RIA buffer and subjected to ghrelin C- and N-RIA. To elucidate the forms of ghrelin peptides modified by different acyl groups, extracted stomach peptides were collected using a Sep-Pak Plus C18 cartridge (Waters, Milford, Mass.) and subjected to C18 RP-HPLC (Symmetry 300, 3.9×150 mm, Waters) with a linear gradient from 10 to 60% CH3CN/0.1% TFA at a flow rate of 1.0 ml/minute for 40 minutes. Five hundred micro-litter fractions were collected. Ghrelin peptide content in each fraction was measured by ghrelin C- and N-RIA as described above. Degradation of ghrelin was not observed during the extraction.
Male C57BL/6J mice weighing 20-25 g (10-12 week old) were maintained under controlled temperature (21-23° C.) and light conditions (light on 0700-1900) with ad libitum access to food and water. Glyceryl triheptanoate (Fluka Chemie GmbH, Buchs, Switzerland) was mixed with standard laboratory chow at a concentration of 5% (w/w). Four days after mice were fed glyceryl triheptanoate-containing food, stomachs (total 1,000 mg) were recovered from mice (n=7). The total consumption of glyceryl triheptanoate-containing food was approximately 13.5 g/mouse, amounting to 675 mg total glyceryl triheptanoate ingested by each mouse. Stomachs were minced and boiled for 5 minutes in 5× volumes of water to inactivate intrinsic proteases. […]

[2] abbreviates: stomach extract, HPLC fraction, 0.2 mg stomach tissue equivalent.

For `CCCCCCC(=O)OCC(COC(=O)CCCCCC)OC(=O)CCCCCC` [glyceryl triheptanoate], the “appearance of plasma peak f (retention time of n-heptanoyl ghrelin)” value in the assay with plasma ghrelin peptides is reported as “observed only in samples from glyceryl triheptanoate-treated mice”. The “appearance of peak b / d (n-heptanoyl ghrelin) immunoreactivity in stomach extracts” value in assay [1] (mice, HPLC, C-RIA / N-RIA) is given as “observed only in mice fed glyceryl triheptanoate”. In addition, in assay [1] (setting [2]), the “concentration of peak b (n-heptanoyl ghrelin) determined by C-RIA” value amounted to 466.3 fmol/tube and the “concentration of peak d (n-heptanoyl ghrelin) measured by N-RIA” value worked out at 74.9 fmol/tube.
